In patent US20260216109A1, “TREATMENT OF SKIN DISORDERS WITH SHORT CHAIN FATTY ACIDS” (Temple University-Of The Commonwealth System of Higher …, priority 2023, published 2026):

Legend:
K16 = assay: Anti-K16 immunostaining of InflammaSkin models; type: cell-based, human; conditions: Example 1; Day 7; Day 1-6: 1 μM Otezla or SCFA (45 μg/mL Ca-propionate + 1 mM Ca-/Mg-butyrate) systemic, 0.05% Betamethasone topical
Method: A total of 16 biopsies of 15 mm diameter were produced from a single donor. Two NativeSkin® models with 12/15 mm silicon rings were produced from the biopsies according to standard procedures in place, and cultured under cell culture conditions (37° C., 5% CO2, max. humidity) for 7 days with 2 mL of standard NativeSkin® medium renewed every day. Fourteen PSO-InflammaSkin® models with 12/15 mm silicon rings were produced by inducing in situ activation and Th17/Th1 polarization of skin resident T cells with a proprietary cocktail, and cultured under cell culture conditions (37° C., 5% CO2, max. humidity) for 7 days with 2 mL of PSO-InflammaSkin® culture medium renewed every day.
From Day 1 to Day 6, models were systemically treated with 1 μM Otezla or Short Chain Fatty Acids (SCFAs), or topically treated with positive control 0.05% Betamethasone
In these experiments, the SCFAs administered were 45 μg/mL of Ca-propionate and 1 mM mixture of salts (Ca-butyrate and Mg-butyrate).
At Day 7, supernatants were collected and stored at −80° C. and skin models of all conditions were carefully unmolded. Skin biopsies were re-punched to eliminate the area under the silicon ring, fixed in 10% buffered formalin and processed for paraffin wax embedding. […]

IFN-γ = assay: Multiplex (MSD V-PLEX) cytokine release, InflammaSkin: IFN-γ; type: cell-based, human; conditions: Example 2; Day 7 supernatant; 1 μM Otezla or SCFA (45 μg/mL Ca-propionate + 1 mM Ca-/Mg-butyrate) systemic, 0.05% Betamethasone topical; vs untreated InflammaSkin
Method: A total of 16 biopsies of 15 mm diameter were produced from a single donor. Two NativeSkin® models with 12/15 mm silicon rings were produced from the biopsies according to standard procedures in place, and cultured under cell culture conditions (37° C., 5% CO2, max. humidity) for 7 days with 2 mL of standard NativeSkin® medium renewed every day. Fourteen PSO-InflammaSkin® models with 12/15 mm silicon rings were produced by inducing in situ activation and Th17/Th1 polarization of skin resident T cells with a proprietary cocktail, and cultured under cell culture conditions (37° C., 5% CO2, max. humidity) for 7 days with 2 mL of PSO-InflammaSkin® culture medium renewed every day. […]
Human pro-inflammatory cytokines released in the supernatant were quantified using the V-PLEX Human IL-17A Kit (MesoScale Discovery, reference: K151RFD-1) and V-PLEX Human custom Pro-inflammatory. […]
Samples were diluted four times for plate 2 and two times for plate 1. Samples and standards were assessed in duplicate. Plates were read on MesoScale Discovery Quickpleax SQ 120 plate reader and values expressed in pg/mL.
A statistical analysis was performed. […] First, the distribution's normality of the two compared group was assessed. […] If the two distributions were normal, the homogeneity of variances was assessed using a Fisher test on the variances. […]

[1] = test system: imiquimod (IMQ)-induced psoriasis model mice; assay: Disease severity score, imiquimod (IMQ)-induced psoriasis model in mice; type: in vivo, mouse; conditions: for disease severity score (psoriasis severity score): Example 12
Method: Topical application of IMQ, a TLR7/8 ligand and potent immune activator induced and exacerbated psoriasis in mice. The mouse IMQ-induced psoriasis (IMQ Ps) model was initiated by a repeated topical application of Aldara© cream (containing 5% IMQ) over 6 consecutive days. Female Balb/c mice (9 weeks of age at reception, ordered with 20 g, Charles River, Sulzfeld, Germany; n=10 mice/group, exception healthy controls n=4) received daily a topical application of 62.5 mg of commercially available IMQ cream (5% Aldara©) on the beforehand (day −1) shaved (~2 cm×3 cm), depilated (Pilka© cream) back skin, and 7 mg on the outer right ear skin for 6 consecutive days, translating in a daily dose of approximately 3.5 mg IMQ. Healthy control mice were included in the study and were treated with vehicle cream (Vaseline; Bombastus-Werke AG) only instead of IMQ. Additionally, an IMQ disease control group was also included.
Before starting treatment on the day of disease induction (day 0), mice were randomized based on body weight to the respective group. To evaluate the anti-inflammatory efficacy of the two test compounds in mouse IMQ psoriasis, mice were treated twice daily ([…] in sterile water; m/m/v) or with fixed dose of SCFA (in ddH2O) starting on day 0.
Disease Severity Score was evaluated on a daily base starting with the induction of psoriasis by IMQ application (day 0) until the end (day 6) of the study. The psoriasis severity on the back skin of the mice was evaluated by using a modified scoring system developed by van der Fits et al., based on the clinical PASI (psoriasis area and severity index) and takes skin erythema, scaling and skin thickening into account. Scoring was performed by the same lab technician throughout the experiment. Each parameter was scored independently on a scale from 0 to 3.
The added-up score (erythema plus scaling plus thickening), named disease severity score (scale 0-9), served then as marker for the severity of back skin inflammation. In addition, ear thickness of the right ear was determined daily by using an automatized caliper (Bayer AG, Germany).
The statistical analysis of the data was conducted by using the GraphPad PRISM software. Here, a one-way analysis of variance (ANOVA) and a pair-wise comparison to the IMQ disease control group (using the Dunnett's test) as a multiple comparison procedure was performed. Statistical significance was delineated by p value (*, p<0.05; **, p<0.01; ***, p<0.005; **** p<0.001).

In the case of CCOc1cc([C@@H](CS(C)(=O)=O)N2C(=O)c3cccc(NC(C)=O)c3C2=O)ccc1OC [Otezla, Apremilast], the “K16 expression in the epidermis” value (K16) is reported as “decreased the expression of K16 in the epidermis”, the IFN-γ secretion (IFN-γ) is reported as “significantly reduced” and the “disease severity score (psoriasis severity), back skin” value ([1]; Example 4, oral gavage BID from day 0 to day 6, Apremilast 25 mg/kg BID (50 mg/kg/day), SCFA fixed dose (120 mg/kg/day Ca-propionate + 2,146 mg/kg/day Ca-/Mg-butyrate), vs IMQ control) is reported as “significantly inhibited the psoriasis severity in IMQ-treated mice throughout the duration of the experiment”. For the same compound, the “disease severity score (psoriasis severity)” value ([1]; Example 5, Apremilast 10 mg/kg/day and 14 mg/kg/day (5 and 7 mg/kg BID), oral) was “inhibited the psoriasis severity in IMQ-treated mice within the first four days of the study, but anti-inflammatory effects were not maintained until the end of the study at day 6”, the “disease severity score (psoriasis severity score)” value ([1]; Apremilast 12 mg/kg BID oral, monotherapy) was “did not reach significance at day 4 and day 5” and the “disease severity score (psoriasis severity score)” value ([1]; Apremilast 25 mg/kg BID oral alone, or combined with fixed dose SCFA (60 mg/kg/day Ca-propionate + 1,100 mg/kg/day Ca-/Mg-butyrate)) was “reduced the psoriasis severity score in IMQ-treated mice at day 4 of the study (p<0.05), and these effects were maintained at the end of the study at day 6”.
